The values below come from PubChem BioAssay AID328 (DTP/NCI, 2004).

This assay concerns BDF1 mice, P388 leukemia ip, median survival T/C. The assay is described as follows: NCI In Vivo Anticancer Drug Screen. Data for tumor model P388 Leukemia (intraperitoneal) in B6D2F1 (BDF1) mice. The settings on record: endpoint: median survival time, higher = longer survival. The gist of the method:
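In tumour-bearing mice, survival after compound treatment is set against the vehicle group and given as a quotient.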

Setting [1] is: dose: 50.0 mg/kg/injection, schedule: Q01DX005 (ip), vehicle: saline with Tween-80.
The mark [2] stands for this setting: dose: 100.0 mg/kg/injection, schedule: Q01DX005 (ip), vehicle: saline with Tween-80.
Setting [3] is: dose: 50.0 mg/kg/injection, schedule: Q01DX009 (ip), vehicle: other.
Setting [4] is: dose: 100.0 mg/kg/injection, schedule: Q01DX009 (ip), vehicle: other.
The mark [5] stands for this setting: dose: 25.0 mg/kg/injection, schedule: Q01DX001 (ip), vehicle: saline with Tween-80.
The mark [6] stands for this setting: dose: 50.0 mg/kg/injection, schedule: Q01DX001 (ip), vehicle: saline with Tween-80.

Where “and” joins values, the source holds several entries; their conditions need not be identical. Equal entries are not always repeated. Inconclusive results and toxic doses are left out.

Consider `CCOP(=S)(OCC)Sc1cnn(C)c(=O)c1SCC`, for which the T/C was 100 % of control under setting [1]; 99 % of control under setting [2]; 100 % of control (dose: 200.0 mg/kg/injection, schedule: Q01DX005 (ip), vehicle: saline with Tween-80).
Consider `NC(=S)N/N=C\c1ncccc1OCc1cccc(N)c1`, for which the T/C (dose: 25.0 mg/kg/injection, schedule: Q01DX009 (ip), vehicle: other) was 165 % of control; the T/C under setting [3] was 150 % of control; the T/C under setting [4] is 163 % of control; the T/C (dose: 200.0 mg/kg/injection, schedule: Q01DX009 (ip), vehicle: other) is 182 % of control.
Turning to `CC1=CCC2C(=O)C=CC(=O)C2C1` (stereo not given), the T/C reads like this: (dose: 0.57 mg/kg/injection, schedule: Q01DX009 (ip), vehicle: Klucel (hydroxypropylcellulose) (HPC)) 120 % of control; (dose: 0.85 mg/kg/injection, schedule: Q01DX009 (ip), vehicle: Klucel (hydroxypropylcellulose) (HPC)) 115 % of control; (dose: 2.0 mg/kg/injection, schedule: Q01DX009 (ip), vehicle: Klucel (hydroxypropylcellulose) (HPC)) 118 % of control; (dose: 3.12 mg/kg/injection, schedule: Q04DX003 (ip), vehicle: Klucel (hydroxypropylcellulose) (HPC)) 100 % of control; (dose: 4.12 mg/kg/injection, schedule: Q01DX009 (ip), vehicle: Klucel (hydroxypropylcellulose) (HPC)) 109 % of control and 110 % of control; (dose: 5.0 mg/kg/injection, schedule: Q04DX003 (ip), vehicle: Klucel (hydroxypropylcellulose) (HPC)) 104 % of control. Besides, the T/C reads like this: (dose: 6.25 mg/kg/injection, schedule: Q01DX009 (ip), vehicle: Klucel (hydroxypropylcellulose) (HPC)) 95 % of control and 120 % of control; (dose: 6.25 mg/kg/injection, schedule: Q04DX003 (ip), vehicle: Klucel (hydroxypropylcellulose) (HPC)) 109 % of control; (dose: 9.37 mg/kg/injection, schedule: Q01DX009 (ip), vehicle: Klucel (hydroxypropylcellulose) (HPC)) 104 % of control and 115 % of control; (dose: 10.0 mg/kg/injection, schedule: Q04DX003 (ip), vehicle: Klucel (hydroxypropylcellulose) (HPC)) 109 % of control; (dose: 12.5 mg/kg/injection, schedule: Q01DX009 (ip), vehicle: Klucel (hydroxypropylcellulose) (HPC)) 90 % of control; (dose: 12.5 mg/kg/injection, schedule: Q04DX003 (ip), vehicle: Klucel (hydroxypropylcellulose) (HPC)) 90 % of control. The T/C (dose: 18.0 mg/kg/injection, schedule: Q01DX009 (ip), vehicle: Klucel (hydroxypropylcellulose) (HPC)) is 113 % of control.
Regarding `O=C1CCCCC1N1CCCCC1` (stereo not given), the T/C was 98 % of control under setting [1] and 105 % of control under setting [2].
Regarding `O=C(O)/C=N/NS(=O)(=O)/C=C/c1ccccc1`, the T/C was 155 % of control under setting [3] and 186 % of control under setting [4].
Turning to `CCOC(=O)C1=C(C)NC(C)=C(C(=O)OCC)C1c1ccccc1Cl`, the T/C is 95 % of control (dose: 28.75 mg/kg/injection, schedule: Q04DX003 (ip), vehicle: Klucel (hydroxypropylcellulose) (HPC)); 104 % of control (dose: 57.5 mg/kg/injection, schedule: Q04DX003 (ip), vehicle: Klucel (hydroxypropylcellulose) (HPC)); 90 % of control (dose: 75.0 mg/kg/injection, schedule: Q01DX009 (ip), vehicle: Klucel (hydroxypropylcellulose) (HPC)); 86 % of control (dose: 115.0 mg/kg/injection, schedule: Q01DX009 (ip), vehicle: Klucel (hydroxypropylcellulose) (HPC)); 100 % of control (dose: 115.0 mg/kg/injection, schedule: Q04DX003 (ip), vehicle: Klucel (hydroxypropylcellulose) (HPC)); 100 % of control (dose: 170.0 mg/kg/injection, schedule: Q01DX001 (ip), vehicle: Klucel (hydroxypropylcellulose) (HPC)). The T/C (dose: 260.0 mg/kg/injection, schedule: Q01DX001 (ip), vehicle: Klucel (hydroxypropylcellulose) (HPC)) is 100 % of control.
As to `O=C(NCCCl)Nc1cccc2cc3ccccc3cc12`, the T/C by setting is: (dose: 100.0 mg/kg/injection, schedule: Q04DX003 (ip), vehicle: Klucel (hydroxypropylcellulose) (HPC)) 100 % of control; (dose: 200.0 mg/kg/injection, schedule: Q04DX003 (ip), vehicle: Klucel (hydroxypropylcellulose) (HPC)) 95 % of control; (dose: 400.0 mg/kg/injection, schedule: Q04DX003 (ip), vehicle: Klucel (hydroxypropylcellulose) (HPC)) 90 % of control.
For the compound `C(=N/Nc1ccccn1)/c1cccnc1`, the T/C under setting [5] is 100 % of control; the T/C under setting [6] was 98 % of control; the T/C (dose: 100.0 mg/kg/injection, schedule: Q01DX001 (ip), vehicle: saline with Tween-80) was 100 % of control.
As for `O=S(=O)(OCCCl)C(F)(F)F`, the T/C was 119 % of control (dose: 1.56 mg/kg/injection, schedule: Q01DX009 (ip), vehicle: saline with Tween-80); 107 % of control (dose: 3.12 mg/kg/injection, schedule: Q01DX009 (ip), vehicle: saline with Tween-80); 120 % of control (dose: 6.25 mg/kg/injection, schedule: Q01DX009 (ip), vehicle: saline with Tween-80).
Take `COC1(C)CCC(C=O)C(C#N)(C#N)C1(C#N)C#N` (stereo not given): the T/C is 98 % of control (dose: 12.5 mg/kg/injection, schedule: Q01DX001 (ip), vehicle: saline with Tween-80); 100 % of control under setting [5]; 104 % of control under setting [6].
Regarding `CNC=O`, the T/C (dose: 7.5 mg/kg/injection, schedule: Q01DX010 (ip), vehicle: saline) was 100 % of control; the T/C (dose: 15.0 mg/kg/injection, schedule: Q01DX010 (ip), vehicle: saline) is 104 % of control and 109 % of control; the T/C (dose: 30.0 mg/kg/injection, schedule: Q01DX010 (ip), vehicle: saline) was 104 % of control and 118 % of control; the T/C (dose: 60.0 mg/kg/injection, schedule: Q01DX010 (ip), vehicle: saline) was 109 % of control and 113 % of control; the T/C (dose: 300.0 mg/kg/injection, schedule: Q01DX010 (ip), vehicle: saline) was 154 % of control; the T/C (dose: 455.0 mg/kg/injection, schedule: Q01DX010 (ip), vehicle: saline) is 154 % of control. The T/C (dose: 680.0 mg/kg/injection, schedule: Q01DX010 (ip), vehicle: saline) is 91 % of control.
Turning to `COC(=O)C1=C(C(=O)OC)C(C(=O)OC)N2C=C(C)C=CC2=C1C(=O)OC` (stereo not given), the T/C (dose: 50.0 mg/kg/injection, schedule: Q01DX009 (ip), vehicle: saline with Tween-80) is 102 % of control; the T/C (dose: 100.0 mg/kg/injection, schedule: Q01DX009 (ip), vehicle: saline with Tween-80) was 100 % of control; the T/C (dose: 200.0 mg/kg/injection, schedule: Q01DX009 (ip), vehicle: saline with Tween-80) was 98 % of control.
On to `CC(Cc1ccc2c(c1)OCO2)C(C)Cc1ccc2c(c1)OCO2` (stereo not given), for which the T/C is, setting by setting: (dose: 100.0 mg/kg/injection, schedule: Q01DX001 (ip), vehicle: Klucel (hydroxypropylcellulose) (HPC)) 100 % of control; (dose: 200.0 mg/kg/injection, schedule: Q01DX001 (ip), vehicle: Klucel (hydroxypropylcellulose) (HPC)) 100 % of control; (dose: 400.0 mg/kg/injection, schedule: Q01DX001 (ip), vehicle: Klucel (hydroxypropylcellulose) (HPC)) 100 % of control.
With `CCOC(=O)C1CSCC1=O` (stereo not given), the T/C runs as follows: (dose: 12.5 mg/kg/injection, schedule: Q01DX009 (ip), vehicle: water) 113 % of control; (dose: 25.0 mg/kg/injection, schedule: Q01DX009 (ip), vehicle: water) 113 % of control; (dose: 50.0 mg/kg/injection, schedule: Q01DX009 (ip), vehicle: water) 98 % of control; (dose: 100.0 mg/kg/injection, schedule: Q01DX009 (ip), vehicle: water) 104 % of control; (dose: 200.0 mg/kg/injection, schedule: Q01DX009 (ip), vehicle: water) 95 % of control; (dose: 200.0 mg/kg/injection, schedule: Q04DX003 (ip), vehicle: water) 101 % of control. The T/C by setting is: (dose: 300.0 mg/kg/injection, schedule: Q04DX003 (ip), vehicle: water) 117 % of control; (dose: 400.0 mg/kg/injection, schedule: Q01DX009 (ip), vehicle: water) 101 % of control; (dose: 400.0 mg/kg/injection, schedule: Q04DX003 (ip), vehicle: water) 106 % of control.
With `CN1CCN(CCCN2c3ccccc3Sc3ccc(Cl)cc32)CC1`, the T/C (dose: 6.25 mg/kg/injection, schedule: Q01DX009 (ip), vehicle: saline) was 113 % of control and the T/C (dose: 12.5 mg/kg/injection, schedule: Q01DX009 (ip), vehicle: saline) was 109 % of control.
In the case of `COC(CBr)OC`, the T/C is 102 % of control (dose: 10.0 mg/kg/injection, schedule: Q01DX009 (ip), vehicle: saline); 98 % of control (dose: 20.0 mg/kg/injection, schedule: Q01DX009 (ip), vehicle: saline); 98 % of control (dose: 40.0 mg/kg/injection, schedule: Q01DX009 (ip), vehicle: saline).
